Results on 1 molecule are retold here after patent US11219221B2 (FarmHannong Co., Ltd., priority 2017, dated 2022).

Test [1] deals with Spirulina subsalsa PPO CyPPO16 (SEQ ID NO: 1) variant A162C (MBP fusion). Kind of test: PPO enzyme inhibition (IC50), MBP-fused PPO. To be noted: 50 μM protoporphyrinogen IX, pH 8.0, room temperature, 30 min. It counts as biochemical. As for the experimental part:
(§1) Thus, PPO proteins of wild type and variants were expressed as fused to MBP and were used for experiments.
(§2) The following process for purification of PPO protein was performed in a 4° C. cold room. Amylose resin (NEB) was packed to 1.5×15 cm column (Bio-Rad, Econo Columns 1.5×15 cm, glass chromatography column, max. vol), and the obtained protein extracts were loaded to the column at a flow rate of 0.2 ml/min. The column was washed with 3 column volumes of buffer and the presence of protein in the washing solution was examined. When the protein was no longer detected, the washing procedure was terminated. Then, the MBP-PPO protein was eluted with approximately 2 column volumes of buffer containing 20 mM maltose. The protein concentration of each eluent was determined and the elution was stopped when the protein was no longer detected. Ten microliter of each fraction was investigated for protein quantification and SDS-PAGE analysis. The highly pure fractions of PPO protein variants were used for the enzyme assay.
(§3) Since protoporphyrinogen IX, a substrate of PPO protein, was not commercially available, it was chemically synthesized in the laboratory. Overall process was performed in dark under nitrogen stream. […] of protoporphyrin IX was dissolved in 20 ml of 20% (v/v) EtOH, and stirred under dark condition for 30 minutes. The obtained protoporphyrin IX solution was put into a 15 ml screw tube in an amount of 800 μl, and flushed with nitrogen gas for 5 minutes. To this, 1.5 g of sodium amalgam was added and vigorously shaken for 2 minutes. The lid was opened to exhaust hydrogen gas in the tube. Thereafter, the lid was closed and incubated for 3 minutes. The protoporphyrinogen IX solution was filtered using syringe and cellulose membrane filter. […] To determine the enzyme activity of PPO protein, a reaction mixture was prepared with the following composition (based on 10 ml): 50 mM Tris-Cl (pH 8.0); 50 mM NaCl; 0.04% (v/v) Tween 20; 40 mM glucose (0.072 g); 5 units glucose oxidase (16.6 mg); and 10 units catalase (1 μl).
(§4) Hundred and eighty microliters of a reaction mixture containing the purified PPO protein were placed in 96 well plates and 20 μl of […] were added. […] The reaction proceeded at room temperature for 30 min and the fluorescence of protoporphyrin IX was measured using Microplate reader (Sense, Hidex) (excitation: 405 nm; emission: 633 nm). […] To this, 2.7 N HCl was added, and the absorbance at 408 nm was measured. A standard curve was generated using standard protoporphyrin IX, and PPO activity was measured by calibration of protoporphyrin IX using the standard curve of protoporphyrin IX.

Test [2] concerns the target Spirulina subsalsa PPO CyPPO16 (SEQ ID NO: 1) variant A162L (MBP fusion). Kind of test: PPO enzyme inhibition (IC50), MBP-fused PPO. The format is biochemical. To be noted: 50 μM protoporphyrinogen IX, pH 8.0, room temperature, 30 min. As for the experimental part: as §1, §2, §3, §4
Test [3] addresses Spirulina subsalsa PPO CyPPO16 (SEQ ID NO: 1) variant F156A (MBP fusion). Kind of test: PPO enzyme inhibition (IC50), MBP-fused PPO. The format is biochemical. To be noted: 50 μM protoporphyrinogen IX, pH 8.0, room temperature, 30 min. Here is the method:
as §1, §2, §3, §4

The target in test [4] is Spirulina subsalsa PPO CyPPO16 (SEQ ID NO: 1) variant F324V (MBP fusion). Kind of test: PPO enzyme inhibition (IC50), MBP-fused PPO. The format is biochemical. To be noted: 50 μM protoporphyrinogen IX, pH 8.0, room temperature, 30 min. As for the experimental part: as §1, §2, §3, §4
The target of test [5] is Spirulina subsalsa PPO CyPPO16 (SEQ ID NO: 1) variant L327T (MBP fusion). The test is described as follows: PPO enzyme inhibition (IC50), MBP-fused PPO. It counts as biochemical. To be noted: 50 μM protoporphyrinogen IX, pH 8.0, room temperature, 30 min. As for the experimental part:
as §1, §2, §3, §4

The target in test [6] is Spirulina subsalsa PPO CyPPO16 (SEQ ID NO: 1) variant R85A (MBP fusion). The test is described as follows: PPO enzyme inhibition (IC50), MBP-fused PPO. It counts as biochemical. To be noted: 50 μM protoporphyrinogen IX, pH 8.0, room temperature, 30 min. Here is the method: as §1, §2, §3, §4
The target of test [7] is Spirulina subsalsa PPO CyPPO16 (SEQ ID NO: 1) variant V160C (MBP fusion). Kind of test: PPO enzyme inhibition (IC50), MBP-fused PPO. It counts as biochemical. To be noted: 50 μM protoporphyrinogen IX, pH 8.0, room temperature, 30 min. Here is the method: as §1, §2, §3, §4
The target in test [8] is Spirulina subsalsa PPO CyPPO16 (SEQ ID NO: 1) variant V305M (MBP fusion). The test is described as follows: PPO enzyme inhibition (IC50), MBP-fused PPO. To be noted: 50 μM protoporphyrinogen IX, pH 8.0, room temperature, 30 min. It counts as biochemical. As for the experimental part: as §1, §2, §3, §4
Test [9] addresses Spirulina subsalsa PPO CyPPO16, wild type, SEQ ID NO: 1 (MBP fusion). Kind of test: PPO enzyme inhibition (IC50), MBP-fused PPO. To be noted: 50 μM protoporphyrinogen IX, pH 8.0, room temperature, 30 min. The format is biochemical. As for the experimental part:
as §1, §2, §3, §4

In test [10] the target is Thermosynechococcus sp. NK55a PPO CyPPO17 (SEQ ID NO: 3) variant A166C (MBP fusion). The test is described as follows: PPO enzyme inhibition (IC50), MBP-fused PPO. To be noted: 50 μM protoporphyrinogen IX, pH 8.0, room temperature, 30 min. The format is biochemical. As for the experimental part:
as §1, §2, §3, §4

In test [11] the target is Thermosynechococcus sp. NK55a PPO CyPPO17 (SEQ ID NO: 3) variant F160A (MBP fusion). Kind of test: PPO enzyme inhibition (IC50), MBP-fused PPO. It counts as biochemical. To be noted: 50 μM protoporphyrinogen IX, pH 8.0, room temperature, 30 min. Here is the method: as §1, §2, §3, §4
Test [12] concerns the target Thermosynechococcus sp. NK55a PPO CyPPO17 (SEQ ID NO: 3) variant F323V (MBP fusion). Kind of test: PPO enzyme inhibition (IC50), MBP-fused PPO. To be noted: 50 μM protoporphyrinogen IX, pH 8.0, room temperature, 30 min. The format is biochemical. As for the experimental part:
as §1, §2, §3, §4

Test [13] deals with Thermosynechococcus sp. NK55a PPO CyPPO17 (SEQ ID NO: 3) variant A166L (MBP fusion). The test is described as follows: PPO enzyme inhibition (IC50), MBP-fused PPO. It counts as biochemical. To be noted: 50 μM protoporphyrinogen IX, pH 8.0, room temperature, 30 min. Here is the method: as §1, §2
as §3, with “Overall” for “Since protoporphyrinogen IX, a substrate of PPO protein, was not commercially available, it was chemically synthesized in the laboratory. Overall”, “minutes.” for “minutes. The protoporphyrinogen IX solution was filtered using syringe and cellulose membrane filter.”
as §4

Test [14] has as its target Thermosynechococcus sp. NK55a PPO CyPPO17 (SEQ ID NO: 3) variant L326T (MBP fusion). The test is described as follows: PPO enzyme inhibition (IC50), MBP-fused PPO. The format is biochemical. To be noted: 50 μM protoporphyrinogen IX, pH 8.0, room temperature, 30 min. Here is the method: as §1, §2
as §3, with “Overall” for “Since protoporphyrinogen IX, a substrate of PPO protein, was not commercially available, it was chemically synthesized in the laboratory. Overall”, “minutes.” for “minutes. The protoporphyrinogen IX solution was filtered using syringe and cellulose membrane filter.”
as §4

For test [15], the target named is Thermosynechococcus sp. NK55a PPO CyPPO17 (SEQ ID NO: 3) variant R88A (MBP fusion). The test is described as follows: PPO enzyme inhibition (IC50), MBP-fused PPO. It counts as biochemical. To be noted: 50 μM protoporphyrinogen IX, pH 8.0, room temperature, 30 min. As for the experimental part: as §1, §2
as §3, with “Overall” for “Since protoporphyrinogen IX, a substrate of PPO protein, was not commercially available, it was chemically synthesized in the laboratory. Overall”, “minutes.” for “minutes. The protoporphyrinogen IX solution was filtered using syringe and cellulose membrane filter.”
as §4

For test [16], the target named is Thermosynechococcus sp. NK55a PPO CyPPO17 (SEQ ID NO: 3) variant V164C (MBP fusion). Kind of test: PPO enzyme inhibition (IC50), MBP-fused PPO. It counts as biochemical. To be noted: 50 μM protoporphyrinogen IX, pH 8.0, room temperature, 30 min. As for the experimental part:
as §1, §2
as §3, with “Overall” for “Since protoporphyrinogen IX, a substrate of PPO protein, was not commercially available, it was chemically synthesized in the laboratory. Overall”, “minutes.” for “minutes. The protoporphyrinogen IX solution was filtered using syringe and cellulose membrane filter.”
as §4

The target of test [17] is Thermosynechococcus sp. NK55a PPO CyPPO17 (SEQ ID NO: 3) variant V304M (MBP fusion). The test is described as follows: PPO enzyme inhibition (IC50), MBP-fused PPO. To be noted: 50 μM protoporphyrinogen IX, pH 8.0, room temperature, 30 min. It counts as biochemical. As for the experimental part: as §1, §2
as §3, with “Overall” for “Since protoporphyrinogen IX, a substrate of PPO protein, was not commercially available, it was chemically synthesized in the laboratory. Overall”, “minutes.” for “minutes. The protoporphyrinogen IX solution was filtered using syringe and cellulose membrane filter.”
as §4

Test [18] deals with Thermosynechococcus sp. NK55a PPO CyPPO17, wild type, SEQ ID NO: 3 (MBP fusion). Kind of test: PPO enzyme inhibition (IC50), MBP-fused PPO. To be noted: 50 μM protoporphyrinogen IX, pH 8.0, room temperature, 30 min. The format is biochemical. Here is the method: as §1, §2
as §3, with “Overall” for “Since protoporphyrinogen IX, a substrate of PPO protein, was not commercially available, it was chemically synthesized in the laboratory. Overall”, “minutes.” for “minutes. The protoporphyrinogen IX solution was filtered using syringe and cellulose membrane filter.”
as §4

Test [19] relates to transgenic A. thaliana (CyPPO16, CyPPO17 and variants). The test is described as follows: Herbicide spray test on Arabidopsis (T1). It counts as in vivo, Arabidopsis thaliana. To be noted: 1 μM spray (100 ml, 0.24 m^2), 4-week-old T1 plants. An excerpt: A. thaliana was transformed with a binary vector having ORF of a selectable marker, Bar gene (glufosinate-tolerant gene), and ORF of each mutant gene of CyPPO16 and CyPPO17. The transgenic plant was examined for cross-tolerance towards glufosinate and PPO-inhibiting herbicides. The bar gene was also used to examine whether the transgene was stably inherited during generations. NOS promoter and E9 terminator were used for bar gene expression.
In order to express proteins of CyPPO16, CyPPO16 variants, CyPPO17, and CyPPO17 variants in plants, a CaMV35S promoter and a NOS terminator were used. Encoding genes of CyPPO16, CyPPO16 variants, CyPPO17, and CyPPO17 variants were introduced into binary vector using Xhol and BamHI restriction enzymes. Furthermore, for confirmation of the protein expression, hemagglutinin (HA) tag was fused to the C-terminal region of PPO protein coding gene using BamHI and Sad restriction enzymes. In addition, in order to transit protein to chloroplast, transit peptide (TP) gene (SEQ ID NO: 90) of AtPPO1 gene (SEQ ID NO: 89) was fused to N-terminal region of PPO protein coding gene using Xbal and Xhol restriction enzymes.
Transgenic plants were screened with glufosinate tolerance which was conferred by Bar gene expression in the binary vector. […]

Turning to `COC(=O)CCNC(=O)C(C)Sc1cc(-n2c(=O)cc(C(F)(F)F)n(C)c2=O)c(F)cc1Cl` (stereo not shown) [tiafenacil], the IC50 in [1] is 79 nM; in [2] it was 193 nM; in test [3], 60 nM; in test [4], 103 nM; in test [5] it was 40 nM; in test [6], 119 nM. For the same molecule, the IC50 in [7] turned out to be 45 nM; in [8], 43 nM; in test [9], 26 nM; in test [10], 219 nM; in test [11], 115 nM; in test [12] it was 152 nM. Also, the IC50 in test [13] came to 1130 nM; in test [14], 194 nM; in [15], 152 nM; in [16], 87 nM; in [17] it was 102 nM; in test [18] it was 44 nM. The “Plant damage after herbicide spray” value in test [19] is reported as “no damage”.
